The target of assay [1] is 5-hydroxytryptamine receptor 4 (Rattus norvegicus, UniProt Q62758). Put plainly: Agonist activity against serotonin 5-HT4 receptor in rat tunica muscularis mucosae assay. The format is functional.
For a further assay, the target named is D(1A) dopamine receptor (Homo sapiens, UniProt P21728). Put plainly: Compound was tested for inhibitory activity against Dopamine D1 receptor.
The target of assay [2] is T1, Alpha-2A adrenergic receptor (Rattus norvegicus, UniProt P22909).
T1 sequence (P22909 whole entry): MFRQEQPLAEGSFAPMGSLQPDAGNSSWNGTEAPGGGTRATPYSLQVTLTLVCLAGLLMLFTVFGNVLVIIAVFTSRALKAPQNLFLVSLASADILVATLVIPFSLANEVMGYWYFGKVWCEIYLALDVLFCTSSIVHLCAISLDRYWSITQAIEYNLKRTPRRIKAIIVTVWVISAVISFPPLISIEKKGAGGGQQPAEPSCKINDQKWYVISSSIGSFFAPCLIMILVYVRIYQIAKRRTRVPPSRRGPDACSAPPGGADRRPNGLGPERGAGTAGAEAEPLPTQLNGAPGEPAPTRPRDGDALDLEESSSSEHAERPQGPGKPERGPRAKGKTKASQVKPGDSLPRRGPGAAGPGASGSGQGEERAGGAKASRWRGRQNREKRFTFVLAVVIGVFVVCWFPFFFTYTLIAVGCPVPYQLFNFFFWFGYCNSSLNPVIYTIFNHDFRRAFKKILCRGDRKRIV
As to the kind of experiment: Compound was tested for inhibitory activity against adrenergic alpha-2 receptor.

The target in assay [3] is T2, 5-hydroxytryptamine receptor 3A (Homo sapiens, UniProt P46098).
T2 sequence (P46098 whole entry): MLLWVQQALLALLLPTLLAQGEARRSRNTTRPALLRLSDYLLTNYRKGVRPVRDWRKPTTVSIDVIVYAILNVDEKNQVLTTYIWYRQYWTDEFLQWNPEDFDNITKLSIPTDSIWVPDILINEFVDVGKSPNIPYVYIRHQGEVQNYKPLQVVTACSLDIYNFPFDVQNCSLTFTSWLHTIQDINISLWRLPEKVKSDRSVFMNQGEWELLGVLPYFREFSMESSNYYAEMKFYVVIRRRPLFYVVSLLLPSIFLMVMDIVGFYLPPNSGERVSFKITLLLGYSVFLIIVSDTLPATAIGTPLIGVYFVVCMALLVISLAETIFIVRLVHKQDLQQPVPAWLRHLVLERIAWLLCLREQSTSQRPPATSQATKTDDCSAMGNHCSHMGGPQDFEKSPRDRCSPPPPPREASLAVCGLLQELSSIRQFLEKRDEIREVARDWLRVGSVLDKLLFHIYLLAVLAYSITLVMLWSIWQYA
Put plainly: (§1) Compound was tested for its binding affinity for the 5-hydroxytryptamine 3 receptor.

In assay [4] the target is T3, Alpha-1B adrenergic receptor (Homo sapiens, UniProt P35368).
T3 sequence (P35368 whole entry): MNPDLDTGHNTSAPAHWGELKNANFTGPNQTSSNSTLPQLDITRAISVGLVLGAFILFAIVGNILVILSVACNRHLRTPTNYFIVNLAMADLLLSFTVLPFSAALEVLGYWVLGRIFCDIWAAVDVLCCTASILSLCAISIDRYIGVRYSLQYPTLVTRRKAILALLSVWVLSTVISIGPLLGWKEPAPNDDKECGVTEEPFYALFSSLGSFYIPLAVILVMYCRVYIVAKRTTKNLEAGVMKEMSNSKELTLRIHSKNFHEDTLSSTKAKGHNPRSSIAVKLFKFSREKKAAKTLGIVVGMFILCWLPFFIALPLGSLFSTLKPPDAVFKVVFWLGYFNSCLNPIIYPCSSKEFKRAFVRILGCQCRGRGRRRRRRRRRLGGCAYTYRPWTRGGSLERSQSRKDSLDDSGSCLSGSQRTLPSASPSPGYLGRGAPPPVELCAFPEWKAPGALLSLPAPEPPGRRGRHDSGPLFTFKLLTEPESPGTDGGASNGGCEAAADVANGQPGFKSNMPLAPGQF
Put plainly: Compound was tested for inhibitory activity against adrenergic alpha-1 receptor.

Assay [5] has as its target T4, D(2) dopamine receptor (Homo sapiens, UniProt P14416). As to the kind of experiment: Compound was tested for inhibitory activity against Dopamine D2 receptor.
For assay [6], the target named is Muscarinic acetylcholine receptor M3 (Rattus norvegicus, UniProt P08483). Put plainly: Compound was tested for inhibitory activity against Muscarinic acetylcholine receptor.
Sequence of Muscarinic acetylcholine receptor M3 (P08483 whole entry): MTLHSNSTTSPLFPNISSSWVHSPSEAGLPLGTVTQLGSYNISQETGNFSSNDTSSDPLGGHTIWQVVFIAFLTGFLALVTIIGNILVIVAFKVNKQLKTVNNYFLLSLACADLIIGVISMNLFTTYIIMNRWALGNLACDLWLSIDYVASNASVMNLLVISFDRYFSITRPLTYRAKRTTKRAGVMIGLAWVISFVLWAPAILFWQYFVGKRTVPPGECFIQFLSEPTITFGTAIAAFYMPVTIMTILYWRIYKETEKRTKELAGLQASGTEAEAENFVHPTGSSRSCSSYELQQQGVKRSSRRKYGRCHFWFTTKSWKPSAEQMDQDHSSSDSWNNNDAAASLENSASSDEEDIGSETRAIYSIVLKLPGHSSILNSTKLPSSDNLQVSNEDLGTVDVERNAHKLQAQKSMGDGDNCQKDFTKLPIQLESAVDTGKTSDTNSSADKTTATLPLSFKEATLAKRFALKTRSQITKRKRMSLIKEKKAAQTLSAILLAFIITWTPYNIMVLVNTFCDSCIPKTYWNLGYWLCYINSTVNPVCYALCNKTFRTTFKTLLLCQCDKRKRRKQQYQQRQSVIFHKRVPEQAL
In assay [7] the target is Serotonin 2 (5-HT2) receptor (Homo sapiens, UniProt P41595+P28223+P28335). Put plainly: Compound was tested for inhibitory activity against 5-hydroxytryptamine 2 receptor. Format: protein assay.
A short description of assay [8]: Compound was tested for inhibitory activity against 5-hydroxytryptamine 1 receptor.
The target in another assay is Adrenergic receptor beta (Homo sapiens, UniProt P08588+P07550+P13945). As to the kind of experiment: Compound was tested for inhibitory activity against Beta adrenergic receptor. Format: protein assay.
The target of a further assay is Substance-P receptor (Homo sapiens, UniProt P25103). Put plainly: Compound was tested for inhibitory activity against Tachykinin receptor 1.
Sequence of Substance-P receptor (P25103 whole entry): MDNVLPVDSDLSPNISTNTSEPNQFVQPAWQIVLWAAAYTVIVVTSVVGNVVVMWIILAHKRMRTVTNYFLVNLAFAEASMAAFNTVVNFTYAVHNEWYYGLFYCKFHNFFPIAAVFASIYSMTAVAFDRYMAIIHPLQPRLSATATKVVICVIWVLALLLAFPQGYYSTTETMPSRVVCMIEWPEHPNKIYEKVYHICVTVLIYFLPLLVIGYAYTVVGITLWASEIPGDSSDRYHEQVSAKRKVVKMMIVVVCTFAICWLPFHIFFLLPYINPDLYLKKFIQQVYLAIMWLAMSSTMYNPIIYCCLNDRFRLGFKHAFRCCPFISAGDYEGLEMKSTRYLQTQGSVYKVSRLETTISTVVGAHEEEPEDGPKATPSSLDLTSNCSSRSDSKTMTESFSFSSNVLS
The subject of another assay is Mus musculus. As to the kind of experiment: Compound was tested for inhibition of serotonin 5-HT3 receptor mediated bradycardia in Bezold-Jarisch reflex model in mice at 1 mg/kg after intraperitoneal administration. Format: functional. To be noted: ip.
The target of assay [9] is T4, D(2) dopamine receptor. As to the kind of experiment: Compound was selective with respect to binding at the Dopamine receptor D2.
In assay [10] the target is T5, Serotonin 3 (5-HT3) receptor (Rattus norvegicus, UniProt P35563+Q9JJ16).
T5 sequence (P35563 whole entry): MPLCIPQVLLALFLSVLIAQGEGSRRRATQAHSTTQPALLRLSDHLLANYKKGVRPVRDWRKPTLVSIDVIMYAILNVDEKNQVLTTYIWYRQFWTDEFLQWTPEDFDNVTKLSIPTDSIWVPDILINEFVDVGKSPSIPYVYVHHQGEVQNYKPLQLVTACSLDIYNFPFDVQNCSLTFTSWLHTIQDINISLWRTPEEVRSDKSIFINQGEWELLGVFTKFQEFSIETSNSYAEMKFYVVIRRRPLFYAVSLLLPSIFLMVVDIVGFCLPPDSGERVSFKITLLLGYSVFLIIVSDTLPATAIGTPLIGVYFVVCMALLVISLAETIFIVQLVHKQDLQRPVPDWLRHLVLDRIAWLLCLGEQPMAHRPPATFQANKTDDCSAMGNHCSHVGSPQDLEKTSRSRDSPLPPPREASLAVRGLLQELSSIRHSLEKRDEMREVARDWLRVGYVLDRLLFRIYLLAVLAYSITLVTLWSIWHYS
T5 sequence (Q9JJ16 whole entry): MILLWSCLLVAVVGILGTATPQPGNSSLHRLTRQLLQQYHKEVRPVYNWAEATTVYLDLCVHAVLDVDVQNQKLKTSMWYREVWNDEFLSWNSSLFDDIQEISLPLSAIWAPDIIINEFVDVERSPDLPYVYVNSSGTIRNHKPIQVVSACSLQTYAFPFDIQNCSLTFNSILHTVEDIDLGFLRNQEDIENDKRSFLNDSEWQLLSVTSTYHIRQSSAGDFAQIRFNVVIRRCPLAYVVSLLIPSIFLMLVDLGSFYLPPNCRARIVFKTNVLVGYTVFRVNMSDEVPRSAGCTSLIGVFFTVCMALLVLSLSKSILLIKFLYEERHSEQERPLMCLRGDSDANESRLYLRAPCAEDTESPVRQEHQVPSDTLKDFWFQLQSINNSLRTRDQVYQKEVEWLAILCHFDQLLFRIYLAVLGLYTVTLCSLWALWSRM
The assay is described as §1. Format: protein-complex assay.

Consider five compounds from ChEMBL document CHEMBL1130509 (Bioorg Med Chem Lett, 1997).

Sequence of 5-hydroxytryptamine receptor 4 (Q62758 whole entry): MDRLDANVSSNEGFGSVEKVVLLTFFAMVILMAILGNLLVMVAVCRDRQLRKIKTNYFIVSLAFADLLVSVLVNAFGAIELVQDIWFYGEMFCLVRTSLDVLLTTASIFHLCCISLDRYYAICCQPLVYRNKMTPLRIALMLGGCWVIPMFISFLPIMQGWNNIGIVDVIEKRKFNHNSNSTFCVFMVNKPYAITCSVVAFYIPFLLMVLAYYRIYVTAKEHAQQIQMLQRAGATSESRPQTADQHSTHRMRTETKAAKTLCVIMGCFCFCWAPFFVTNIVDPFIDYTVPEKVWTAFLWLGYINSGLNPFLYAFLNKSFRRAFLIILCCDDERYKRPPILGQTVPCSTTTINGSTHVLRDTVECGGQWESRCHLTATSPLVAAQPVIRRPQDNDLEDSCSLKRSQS
T4 sequence (P14416 whole entry): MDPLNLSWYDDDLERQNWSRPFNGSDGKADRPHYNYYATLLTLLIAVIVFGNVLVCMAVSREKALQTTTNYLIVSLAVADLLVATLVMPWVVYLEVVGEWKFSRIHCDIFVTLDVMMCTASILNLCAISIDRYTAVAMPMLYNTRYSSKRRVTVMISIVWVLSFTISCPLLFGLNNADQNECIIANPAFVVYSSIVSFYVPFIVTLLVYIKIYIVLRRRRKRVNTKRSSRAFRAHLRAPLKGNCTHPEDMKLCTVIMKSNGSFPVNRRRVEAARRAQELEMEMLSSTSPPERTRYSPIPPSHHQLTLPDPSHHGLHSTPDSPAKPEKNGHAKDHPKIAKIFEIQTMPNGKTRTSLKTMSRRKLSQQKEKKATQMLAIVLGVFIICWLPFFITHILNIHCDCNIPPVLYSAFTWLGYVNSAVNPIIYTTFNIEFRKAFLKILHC
Sequence of D(1A) dopamine receptor (P21728 whole entry): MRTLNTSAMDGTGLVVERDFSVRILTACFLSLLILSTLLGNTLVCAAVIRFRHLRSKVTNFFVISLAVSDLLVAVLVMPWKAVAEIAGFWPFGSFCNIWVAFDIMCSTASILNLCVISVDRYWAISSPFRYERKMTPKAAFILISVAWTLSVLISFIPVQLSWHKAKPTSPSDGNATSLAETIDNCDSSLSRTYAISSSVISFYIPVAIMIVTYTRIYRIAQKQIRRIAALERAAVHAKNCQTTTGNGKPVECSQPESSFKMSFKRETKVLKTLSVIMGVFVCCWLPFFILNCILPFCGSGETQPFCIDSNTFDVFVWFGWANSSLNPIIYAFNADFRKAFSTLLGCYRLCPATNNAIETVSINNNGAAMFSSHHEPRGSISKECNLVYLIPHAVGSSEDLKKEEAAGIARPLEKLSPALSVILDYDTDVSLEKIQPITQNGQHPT

In the case of `COc1cc(NC(C)=O)c(Cl)cc1C(=O)NC1C2CC3CC1CN3C2` (configuration not stated), the EC50 in assay [1] is > 10 µM.

Turning to `COc1cc(N)c(Cl)cc1C(=O)NC1C2CC3CN(C2)CC31.Cl` (configuration not stated), the IC50 (against D(1A) dopamine receptor; in assay [2]; in assay [4]; against D(2) dopamine receptor [5]; in assay [6]; in assay [7]) was > 10 µM throughout. The IC50 (in [8]; against Adrenergic receptor beta; on Substance-P receptor) was > 10 µM in each case. Further, in assay [3], the affinity corresponds to a Ki of 0.0012 µM. In assay [1], the response was half-maximal at 0.051 µM (EC50).

Turning to `COc1cc(N)c(Cl)cc1C(=O)NCCC12CC3CN(CC3C1)C2`, it took 1.66 µM to reach a half-maximal effect in assay [1] (EC50).

On to `COc1cc(N)c(Cl)cc1C(=O)NCC12CC3CN(CC3C1)C2`, for which the inhibition in vivo at 1 mg/kg with Mus musculus came out at 70%. In addition, at D(2) dopamine receptor [9], the IC50 is > 10 µM. In [10], this compound had a Ki of 0.005 µM.

On to `COc1cc(NC(C)=O)c(Cl)cc1C(=O)NCC1C2CC3CC1CN3C2` (configuration not stated), for which the EC50 in [1] is > 10 µM.

In general, EC50 refers to the concentration giving half of the maximal effect. High values mean weaker potency, low ones greater potency. A word on the IC50: it is the concentration that gives 50% inhibition. Low values mean higher potency, high ones lower potency. The Ki is the dissociation constant of the complex between target and ligand, obtained from inhibition or displacement. A higher Ki goes with lower affinity. Broadly, the inhibition in vivo is the drop in the measured response relative to a control, in per cent. A lower inhibition in vivo goes with a weak effect.
